Test results: ChEMBL document CHEMBL5096238 (J Med Chem, 2022)
pIC50: −log10 of the molar value.

Experiments:
[1] = target: Hepatocyte growth factor receptor (Homo sapiens, UniProt P08581); test: Inhibition of N-terminal His/SUMO tagged wild type human c-Met (1038 to 1346 residues) transfected in Escherichia coli using Tyr06 peptide as substrate incubated for 1 hr in presence of ATP by FRET-based Z'-Lyte assay
Hs746T = test: cells; settings: Homo sapiens, 120 h
[2] = target: T1, Tyrosine-protein kinase receptor UFO (Homo sapiens, UniProt P30530); test: Inhibition of AXL (unknown origin)
T1 sequence (P30530 whole entry): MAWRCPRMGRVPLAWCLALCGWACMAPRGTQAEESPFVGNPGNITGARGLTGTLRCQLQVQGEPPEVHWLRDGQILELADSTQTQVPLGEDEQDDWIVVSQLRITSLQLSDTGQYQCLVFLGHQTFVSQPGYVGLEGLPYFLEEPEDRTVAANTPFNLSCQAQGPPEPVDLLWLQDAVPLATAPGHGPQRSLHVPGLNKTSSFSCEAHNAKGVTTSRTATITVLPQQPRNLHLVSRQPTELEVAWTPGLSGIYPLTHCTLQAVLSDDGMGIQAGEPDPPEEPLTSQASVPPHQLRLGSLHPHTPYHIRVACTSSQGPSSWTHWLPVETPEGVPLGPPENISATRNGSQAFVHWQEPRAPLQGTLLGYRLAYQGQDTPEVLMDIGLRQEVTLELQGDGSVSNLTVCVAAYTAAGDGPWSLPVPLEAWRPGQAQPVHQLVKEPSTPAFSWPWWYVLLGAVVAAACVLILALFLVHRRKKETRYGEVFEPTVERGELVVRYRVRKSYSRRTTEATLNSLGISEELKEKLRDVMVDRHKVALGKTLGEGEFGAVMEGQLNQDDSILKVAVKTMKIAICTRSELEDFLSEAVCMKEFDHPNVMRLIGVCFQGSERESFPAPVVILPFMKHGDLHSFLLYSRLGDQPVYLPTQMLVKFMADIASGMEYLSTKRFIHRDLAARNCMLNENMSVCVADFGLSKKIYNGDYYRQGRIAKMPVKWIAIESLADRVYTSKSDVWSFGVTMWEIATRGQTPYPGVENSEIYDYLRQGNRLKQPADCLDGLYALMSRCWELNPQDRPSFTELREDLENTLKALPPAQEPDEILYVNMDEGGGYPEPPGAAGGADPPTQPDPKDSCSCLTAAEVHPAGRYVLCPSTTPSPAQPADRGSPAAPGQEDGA

SNU-16 = test: cells; settings: Homo sapiens, SNU-16, 120 h
BaF3 [3] = test: cells; settings: Mus musculus, BaF3, 72 h
BaF3 [4] = test: cells; settings: Mus musculus, BaF3, 72 h; remark: listed apart in the source
BaF3 [5] = test: cells; settings: Mus musculus, BaF3, 72 h; remark: listed apart in the source
BaF3 [6] = test: cells; settings: Mus musculus, BaF3, 72 h; remark: listed apart in the source
BaF3 [7] = test: cells; settings: Mus musculus, BaF3, 72 h; remark: listed apart in the source
BaF3 [8] = test: cells; settings: Mus musculus, BaF3, 72 h; remark: listed apart in the source
AGS = test: cells; settings: Homo sapiens, 120 h
BaF3 [9] = test: cells; settings: Mus musculus, BaF3, 72 h; remark: listed apart in the source
BaF3 [10] = test: cells; settings: Mus musculus, BaF3, 72 h; remark: listed apart in the source
[11] = Apparent permeability across apical to basolateral side in human Caco-2 cells at 10 uM incubated for 120 mins by LC-MS/MS analysis; type: ADME, cell-based

Sequence of Hepatocyte growth factor receptor (P08581 whole entry, the tested form may be a part): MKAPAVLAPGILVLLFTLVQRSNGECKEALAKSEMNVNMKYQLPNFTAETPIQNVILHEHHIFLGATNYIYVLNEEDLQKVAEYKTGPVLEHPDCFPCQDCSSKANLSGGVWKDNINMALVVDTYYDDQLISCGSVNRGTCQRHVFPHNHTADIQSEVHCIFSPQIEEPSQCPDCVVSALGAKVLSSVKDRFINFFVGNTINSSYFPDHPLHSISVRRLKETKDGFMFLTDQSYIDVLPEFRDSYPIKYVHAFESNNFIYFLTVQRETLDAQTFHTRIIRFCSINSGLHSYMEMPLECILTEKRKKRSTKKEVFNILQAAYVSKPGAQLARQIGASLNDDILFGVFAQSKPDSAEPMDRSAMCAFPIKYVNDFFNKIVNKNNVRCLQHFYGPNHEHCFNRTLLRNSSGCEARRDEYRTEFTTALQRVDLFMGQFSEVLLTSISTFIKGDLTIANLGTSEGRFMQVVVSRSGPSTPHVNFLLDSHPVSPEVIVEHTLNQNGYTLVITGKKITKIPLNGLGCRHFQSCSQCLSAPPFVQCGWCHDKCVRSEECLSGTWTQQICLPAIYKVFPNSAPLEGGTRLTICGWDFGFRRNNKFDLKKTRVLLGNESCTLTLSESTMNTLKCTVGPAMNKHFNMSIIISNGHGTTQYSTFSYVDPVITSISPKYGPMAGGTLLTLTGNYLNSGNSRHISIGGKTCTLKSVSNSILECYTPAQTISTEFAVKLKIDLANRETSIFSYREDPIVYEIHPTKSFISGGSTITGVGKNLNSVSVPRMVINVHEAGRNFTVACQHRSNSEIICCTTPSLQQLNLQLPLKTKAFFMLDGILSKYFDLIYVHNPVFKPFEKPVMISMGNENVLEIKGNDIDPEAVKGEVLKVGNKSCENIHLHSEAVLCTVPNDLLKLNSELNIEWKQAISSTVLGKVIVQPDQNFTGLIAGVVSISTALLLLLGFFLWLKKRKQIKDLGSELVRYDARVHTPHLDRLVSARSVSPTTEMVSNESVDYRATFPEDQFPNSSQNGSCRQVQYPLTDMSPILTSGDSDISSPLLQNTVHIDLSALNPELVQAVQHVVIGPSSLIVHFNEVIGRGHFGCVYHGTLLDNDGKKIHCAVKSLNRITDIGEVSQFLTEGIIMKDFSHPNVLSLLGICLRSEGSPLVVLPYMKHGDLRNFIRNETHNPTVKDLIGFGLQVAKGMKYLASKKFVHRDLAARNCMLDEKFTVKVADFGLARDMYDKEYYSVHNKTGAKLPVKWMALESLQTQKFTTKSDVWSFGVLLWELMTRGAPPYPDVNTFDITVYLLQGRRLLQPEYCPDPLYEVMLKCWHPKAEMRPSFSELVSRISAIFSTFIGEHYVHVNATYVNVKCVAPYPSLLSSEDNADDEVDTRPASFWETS

pIC50 [1]	pIC50 (Hs746T)	Structure (SMILES)	other results
7.74	6.31	Cn1cc(-c2cnc3ccc(CCn4nc(-c5ccc(F)cc5)ccc4=O)cc3c2)cn1	
8.27	6.95	Cn1cc(-c2cnc3ccc(CCn4nc(-c5cccc(C(F)(F)F)c5)ccc4=O)cc3c2)cn1	
8.24	5.37	Cn1cc(-c2cnc3ccc(CCn4nc(-c5ccc(C(=O)O)c(C(F)(F)F)c5)ccc4=O)cc3c2)cn1	
< 5.00		Cn1cc(-c2ccc(-c3ccc(=O)n(Cc4ccc5ncccc5c4)n3)cc2)cn1	
8.05	6.48	Cc1cccc(-c2ccc(=O)n(CCc3ccc4ncc(-c5cnn(C)c5)cc4c3)n2)c1	
8.55	6.94	CNC(=O)c1ccc(-c2ccc(=O)n(CCc3ccc4ncc(-c5cnn(CCO)c5)cc4c3)n2)cc1C(F)(F)F	
8.27		CNC(=O)c1ccc(-c2ccc(=O)n(CCc3ccc4ncc(-c5cnn(C6CCOCC6)c5)cc4c3)n2)cc1C(F)(F)F	pIC50 [2]: 6.78
7.97	6.40	Cn1cc(-c2cnc3ccc(CCn4nc(-c5cccc(F)c5)ccc4=O)cc3c2)cn1	
	8.35	CN1CCC(COc2cnc(-c3cccc(Cn4nc(-c5cccc(C#N)c5)ccc4=O)c3)nc2)CC1 [TEPOTINIB]	pIC50 (SNU-16): 6.44; pIC50 (BaF3 [3]): 8.00; pIC50 (BaF3 [4]): 5.51; pIC50 (BaF3 [5]): 8.60; pIC50 (BaF3 [6]): 7.33; pIC50 (BaF3 [7]): 8.06; pIC50 (BaF3 [8]): 5.62; pIC50 (AGS): 5.84; pIC50 (BaF3 [9]): 7.44; pIC50 (BaF3 [10]): 8.82
8.38	7.70	CNC(=O)c1ccc(-c2ccc(=O)n(CCc3ccc4ncc(-c5cnn(C6CCNCC6)c5)cc4c3)n2)cc1C(F)(F)F	
7.45	5.52	CNC(=O)c1ccc(-c2ccc(=O)n(/C=C/c3ccc4ncc(-c5cnn(C)c5)cc4c3)n2)cc1C(F)(F)F	
7.84	7.64	CNC(=O)c1ccc(-c2ccc(=O)n(CCc3ccc4ncc(N5CCC(N6CCCC6)CC5)cc4c3)n2)cc1C(F)(F)F	
7.83		Cn1cc(-c2cnc3ccc(CCn4nc(-c5ccccc5)ccc4=O)cc3c2)cn1	
8.13	7.34	CNC(=O)c1ccc(-c2ccc(=O)n(CCc3ccc4ncc(-c5cnn(CCOC)c5)cc4c3)n2)cc1C(F)(F)F	
< 5.00		O=c1ccc(-c2ccc(N3CCOCC3)cc2)nn1Cc1ccc2ncccc2c1	
7.97	6.70	CNC(=O)c1ccc(-c2ccc(=O)n(CCc3ccc4ncc(N5CCN(C)CC5)cc4c3)n2)cc1C(F)(F)F	
8.40	6.86	CNC(=O)c1ccc(-c2ccc(=O)n(CCc3ccc4ncc(-c5cnn(C)c5)cc4c3)n2)cc1	
8.17	6.36	Cn1cc(-c2cnc3ccc(CCn4nc(-c5cccc(Br)c5)ccc4=O)cc3c2)cn1	
8.09	6.55	Cc1ccc(-c2ccc(=O)n(CCc3ccc4ncc(-c5cnn(C)c5)cc4c3)n2)cc1	
6.77		O=c1ccc(-c2ccccc2)nn1Cc1ccc2ncc(N3CCOCC3)cc2c1	
7.94	6.67	CNC(=O)c1ccc(-c2ccc(=O)n(CCc3ccc4ncc(N5CC6CNCC6C5)cc4c3)n2)cc1C(F)(F)F (stereo not given)	
< 5.00		O=c1ccc(-c2ccccc2)nn1Cc1ccc2ncccc2c1	
6.86		Cn1cc(-c2cnc3ccc(Cn4nc(-c5ccccc5)ccc4=O)cc3c2)cn1	
8.31	6.52	Cn1cc(-c2cnc3ccc(CCn4nc(-c5cccc(Cl)c5)ccc4=O)cc3c2)cn1	
7.74	6.43	CNC(=O)c1ccc(-c2ccc(=O)n(CCc3ccc4ncc(NCCN5CCOCC5)cc4c3)n2)cc1C(F)(F)F	

pIC50 [1]	pIC50 (Hs746T)	Structure (SMILES)	other results
6.68		O=c1ccc(-c2ccc(N3CCOCC3)cc2)nn1CCc1ccc2ncccc2c1	
8.00	5.60	Cn1cc(-c2cnc3ccc(CCn4nc(-c5ccc(C(=O)O)cc5)ccc4=O)cc3c2)cn1	
8.06	6.21	Cn1cc(-c2cnc3ccc(CCn4nc(-c5cccc(N)c5)ccc4=O)cc3c2)cn1	
8.32	7.92	CNC(=O)c1ccc(-c2ccc(=O)n(CCc3ccc4ncc(-c5cnn(C)c5)cc4c3)n2)cc1C(F)(F)F	
7.58	6.37	CNC(=O)c1ccc(-c2ccc(=O)n(CCc3ccc4ncc(NCCN5CCCCC5)cc4c3)n2)cc1C(F)(F)F	
8.30	6.73	CNC(=O)c1ccc(-c2ccc(=O)n(CCc3ccc4ncc(-c5cnn(CCN6CCOCC6)c5)cc4c3)n2)cc1C(F)(F)F	
7.86	7.32	CNC(=O)c1ccc(-c2ccc(=O)n(CCc3ccc4ncc(N5CCC(N6CCN(C)CC6)CC5)cc4c3)n2)cc1C(F)(F)F	
7.59	6.20	Cn1cc(-c2cnc3ccc(CCn4nc(-c5ccccc5F)ccc4=O)cc3c2)cn1	
7.69	5.84	Cn1cc(-c2cnc3ccc(CCn4nc(-c5cccc(OC(F)(F)F)c5)ccc4=O)cc3c2)cn1	
5.64	5.00	CNC(=O)c1ccc(-c2ccc(=O)n(NC(=O)c3ccc4ncc(-c5cnn(C)c5)cc4c3)n2)cc1C(F)(F)F	
8.12	6.64	Cn1cc(-c2cnc3ccc(CCn4nc(-c5cc(F)c(F)c(F)c5)ccc4=O)cc3c2)cn1	
6.18		Cn1cc(-c2ccc(-c3ccc(=O)n(CCc4ccc5ncccc5c4)n3)cc2)cn1	
7.38		O=c1ccc(-c2ccccc2)nn1CCc1ccc2ncc(N3CCOCC3)cc2c1	
8.48	6.79	O=C1NCCCCCn2cc(cn2)-c2cnc3ccc(cc3c2)CCn2nc(ccc2=O)-c2ccc1c(C(F)(F)F)c2	Papp A→B at 2 h, 10 µM [11]: 0.29 ×10⁻⁶ cm/s
5.70		O=c1ccc(-c2ccccc2)nn1CCc1ccc2ncccc2c1	
7.83	5.87	COc1cccc(-c2ccc(=O)n(CCc3ccc4ncc(-c5cnn(C)c5)cc4c3)n2)c1	
7.82	6.48	Cn1cc(-c2cnc3ccc(CCn4nc(-c5cccc([N+](=O)[O-])c5)ccc4=O)cc3c2)cn1	
8.00	7.41	CNC(=O)c1ccc(-c2ccc(=O)n(CC(F)(F)c3ccc4ncc(-c5cnn(C)c5)cc4c3)n2)cc1C(F)(F)F	
8.17	6.97	CNC(=O)c1ccc(-c2ccc(=O)n(CCc3ccc4ncc(-c5cn[nH]c5)cc4c3)n2)cc1C(F)(F)F	
8.12	5.72	COC(=O)c1ccc(-c2ccc(=O)n(CCc3ccc4ncc(-c5cnn(C)c5)cc4c3)n2)cc1	
7.98	6.89	Cn1cc(-c2cnc3ccc(CCn4nc(-c5cccc(C#N)c5)ccc4=O)cc3c2)cn1	
7.88	6.15	Cn1cc(-c2cnc3ccc(CCn4nc(-c5ccc(F)c(F)c5)ccc4=O)cc3c2)cn1	
8.40	6.99	COC(=O)c1ccc(-c2ccc(=O)n(CCc3ccc4ncc(-c5cnn(C)c5)cc4c3)n2)cc1C(F)(F)F	
7.88	7.03	CNC(=O)c1ccc(-c2ccc(=O)n(CCc3ccc4ncc(N5CCC(N6CCOCC6)CC5)cc4c3)n2)cc1C(F)(F)F	
7.10	6.35	CNC(=O)c1ccc(-c2ccc(=O)n(CCOc3ccc4ncc(-c5cnn(C)c5)cc4c3)n2)cc1C(F)(F)F	
